Reference: patent publication US8691805B2, “Azetidinyl diamides as monoacylglycerol lipase inhibitors” (Janssen Pharmaceutica NV, priority 2009, dated 2014)
pKd: −log10 of the molar value.

Assays:
[1] = target: T1, MGL in rat brain homogenate (Rattus norvegicus, UniProt Q8R431); assay: 2-AG accumulation assay in rat brain homogenate; assay type: biochemical; conditions: 2-AG accumulation as percent of vehicle; for Rat Brain 2AG % VehCntrl (%) @10 μM: compound 10 μM
T1 construct: one g rat brain was homogenized; from tissue; host or cells: rat brain homogenate
T1 sequence (Q8R431 1-303): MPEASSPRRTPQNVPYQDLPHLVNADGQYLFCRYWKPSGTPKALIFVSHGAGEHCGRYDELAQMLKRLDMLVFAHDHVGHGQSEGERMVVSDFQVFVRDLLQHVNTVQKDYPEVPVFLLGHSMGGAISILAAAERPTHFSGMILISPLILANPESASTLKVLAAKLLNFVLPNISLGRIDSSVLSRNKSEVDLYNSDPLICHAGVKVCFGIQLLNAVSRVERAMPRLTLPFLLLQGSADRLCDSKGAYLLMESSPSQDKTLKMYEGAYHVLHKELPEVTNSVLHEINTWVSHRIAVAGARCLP

[2] = target: T2, mutant MGL (Homo sapiens, UniProt Q99685, L169S/L176S); assay: MGL ThermoFluor assay - mutant; conditions: read-out: MGL mutant ThermoFluor Kd, ThermoFluor thermal shift
T2 sequence (Q99685 1-303 L169S/L176S): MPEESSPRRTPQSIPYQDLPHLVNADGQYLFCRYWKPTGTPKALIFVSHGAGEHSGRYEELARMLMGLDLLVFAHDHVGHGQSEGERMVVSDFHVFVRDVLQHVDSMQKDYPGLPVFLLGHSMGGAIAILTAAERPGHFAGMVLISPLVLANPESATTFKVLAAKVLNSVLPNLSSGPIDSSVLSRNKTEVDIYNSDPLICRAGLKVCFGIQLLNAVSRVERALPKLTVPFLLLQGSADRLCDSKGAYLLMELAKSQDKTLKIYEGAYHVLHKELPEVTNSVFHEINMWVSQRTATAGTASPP
Method: The ThermoFluor (TF) assay is a 384-well plate-based binding assay that measures thermal stability of proteins^1,2. […] TF dye used in all experiments was 1,8-ANS (Invitrogen: A-47). Final TF assay conditions used for MGL studies were 0.07 mg/ml of mutant MGL, 100 μM ANS, 200 mM NaCl, 0.001% Tween-20 in 50 mM PIPES (pH=7.0).
Screening compound plates contained 100% DMSO compound solutions at a single concentration. […] Columns 12 and 24 were used as DMSO reference and contained no compound. […] Following compound dispension, protein and dye solutions were added to achieve the final assay volume of 3 μL.
Bar-coded assay plates were robotically loaded onto a thermostatically controlled PCR-type thermal block and then heated from 40 to 90° C. degrees at a ramp-rate of 1° C./min for all experiments. Fluorescence was measured by continuous illumination with UV light (Hamamatsu LC6), supplied via fiber optics and filtered through a band-pass filter (380-400 nm; >6 OD cutoff). Fluorescence emission of the entire 384-well plate was detected by measuring light intensity using a CCD camera (Sensys, Roper Scientific) filtered to detect 500±25 nm, resulting in simultaneous and independent readings of all 384 wells. […]

[3] = system: CFA-induced paw radiant heat hypersensitivity in rats; assay: CFA-induced paw radiant heat hypersensitivity; assay type: in vivo; conditions: rat, 30 mg/kg p.o., HPβCD, group mean values, last time point 180 or 300 min
Method: Each rat was placed in a test chamber on a warm glass surface and allowed to acclimate for approximately 10 min. A radiant thermal stimulus (beam of light) was then focused through the glass onto the plantar surface of each hind paw in turn. The thermal stimulus was automatically shut off by a photoelectric relay when the paw was moved or when the cut-off time was reached (20 sec for radiant heat at ˜5 amps). An initial (baseline) response latency to the thermal stimulus was recorded for each animal prior to the injection of complete Freund's adjuvant (CFA). 24 h following intraplantar CFA injection, the response latency of the animal to the thermal stimulus was then re-evaluated and compared to the animal's baseline response time. […] Post-compound treatment withdrawal latencies were assessed at fixed time intervals, typically 30, 60, 120, 180, and 300 min.
The percent reversal (% R) of hypersensitivity was calculated in one of two different ways: 1) using group mean values or 2) using individual animal values. […]
Method 1. For all compounds, the % R of hypersensitivity was calculated using the mean value for groups of animals at each time point according to the following formula: % reversal=[(group treatment response−group CFA response)/(group baseline response−group CFA response)]×100 Results are given for the maximum % reversal observed for each compound at any time point tested. […]

[4] = system: murine model of acute inflammation; conditions: Comelli et al. 2007; cited from earlier work

Row | Structure (SMILES) | Rat Brain 2AG % VehCntrl (%) @10 μM [1] | Method 1: peak % reversal [3] | other results
1 | O=C(c1nccs1)N1CCN(C2CN(C(=O)[C@@H]3C[C@H]3c3ccccc3Cl)C2)CC1 (racemic) [Cpd 642] |  |  | Rat Brain 2AG % VehCntrl (%) @1 μM ([1]; compound 1 μM): 170%; pKd [2]: 6.30
2 | O=C(c1ccc(-c2ccc(O)cc2)cc1)N1CC(N2CCN(C(=O)c3nccs3)CC2)C1 [Cpd 211, 4′-({3-[(1,3-Thiazol-2-ylcarbonyl)piperazin-1-yl]azetidin-1-yl}carbonyl)biphenyl-4-ol] | 725% |  | 
3 | O=C(c1ccc2c(ccn2-c2ccc(C(F)(F)F)cc2)c1)N1CC(N2CCN(C(=O)c3cscn3)CC2)C1 [Cpd 1359, 5-({3-[4-(1,3-Thiazol-4-ylcarbonyl)piperazin-1-yl]azetidin-1-yl}carbonyl)-1-[4-(trifruoromethyl)phenyl]-1 H-indole] |  | 5.1% | 
4 | COc1ccc(-c2ccc(C(=O)N3CC(N4CCN(C(=O)c5nccs5)CC4)C3)cc2)cc1C=O [Cpd 216, 4-Methoxy-4′-({3-[(1,3-thiazol-2-ylcarbonyl)piperazin-1-yl]azetidin-1-yl}carbonyl)biphenyl-3-carbaldehyde] | 625% |  | 
5 | O=C(Nc1cccc(-c2ccccc2)c1)OC1CCCCC1 [URB602] |  |  | antinociceptive effect [4]: showed an antinociceptive effect
6 | O=C(c1ccc(-c2cccc(C(F)(F)F)c2)c(Cl)c1)N1CC(N2CCN(C(=O)c3cscn3)CC2)C1 [Cpd 1102] |  | 38% | 
